Test results: patent US20130267494A1, “1,4-OXAZEPANE DERIVATIVES” (priority 2010, published 2013)
Structures can show the parent of a compound that is named as a salt. Where two headings read alike, the source gives them in different places.

Key:
SD female rats = assay: Measurement of urethral resistance increasing effect (leak point pressure, oral administration); type: in vivo, rat
Protocol: The urethral resistance increasing effect in rat was measured by a modified method of Matsumoto et al. (WO2009/063992) as follows. That is, SD female rats (CLEA Japan, Inc.) were anesthetized with isoflurane (1.0%; Abbott), and the spinal cord was transected at Th8-9 to avoid the voiding reflex. After laparotomy, an intravesical pressure measurement catheter and a saline infusion catheter (PE-100; Clay Adams) were inserted into the bladder. Thereafter, the abdomen of the rat was closed with aronalpha A “Sankyo” (Daiichi Sankyo). The rat with an inserted catheter was placed in a Bollman cage (KN-326 Bollman cage TYPE III; Natsume). The intravesical pressure measurement catheter was connected to a computer via a pressure transducer (DX-100; Nihon Koden), an amplifier (RPM-6008M; Nihon Koden/303638; SAN-EI), and a multi-channel data analyzer (MP150/MP100; Biopack), and changes in the intravesical pressure were recorded on a hard disc at a frequency of 100 samples/sec. The saline infusion catheter was connected to a 50 mL syringe (Terumo) filled with saline colored with Evans Blue (Wako). The saline was infused into the bladder from the 50 mL syringe filled with saline at a rate of 0.1 mL/sec by using an infusion pump (Kds100; KD Scientific). When the saline leaked from the urethral orifice, infusion was discontinued, and the saline in the bladder was released. The maximum pressure observed during infusion of saline into the bladder and leakage thereof was taken as an LPP (Leak point pressure) value. The measurement was repeated until the LPP value was stabilized, and an average of continuous three stable LPP values was taken as the result. In addition, the measurement of drug effect was started 1 hr after the animal was placed in the Bollman cage. The LPP value (Pre value) was measured, a drug was orally administered, and the measurement of LPP value (Post value) was again started 15 min, 30 min, 1 hr, 2 hr and 4 hr after administration. The urethral resistance increasing effect by the drug was shown by the difference between the LPP value (Post value) and LPP value (Pre value). The drug was orally administered at 2.0 mL/kg, using 0.5% methylcellulose as a vehicle. For detection of a significant difference in the urethral resistance increasing effect by the drug as compared to the vehicle, the following method was used. For comparison of 3 or more groups, the Williams' test was used for a parametric test, and the Shirley-Williams' test was used for a non-parametric test. For comparison of 2 groups, the Student's t-test was used for a parametric test, and the […] was used for a non-parametric test.

[1] = target: T1, human norepinephrine transporter (Homo sapiens, UniProt P23975); assay: Inhibitory action on human norepinephrine transporter ([3H]-norepinephrine uptake in CHO cells); type: cell-based; conditions: CHO, relative to inhibitory activity of 10 μM DMI as 100%
T1 construct: expressed in transfected cells
Summary of the method: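 Stably transfected CHO-K1 cells plated overnight, then given test compound and [3H]-norepinephrine (20 nM final, from 200 nM) in HEPES-buffered saline with 0.5% BSA for 45 min. After PBS washes, retained radioactivity counted by scintillation. Inhibition at 10 μM or 1 μM compound expressed relative to 10 μM DMI as 100%.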

[2] = compound 1 μM, read-out: inhibitory rate (%)
[3] = read-out: inhibitory rate (%), compound 1 μM

T1 sequence (P23975 whole entry): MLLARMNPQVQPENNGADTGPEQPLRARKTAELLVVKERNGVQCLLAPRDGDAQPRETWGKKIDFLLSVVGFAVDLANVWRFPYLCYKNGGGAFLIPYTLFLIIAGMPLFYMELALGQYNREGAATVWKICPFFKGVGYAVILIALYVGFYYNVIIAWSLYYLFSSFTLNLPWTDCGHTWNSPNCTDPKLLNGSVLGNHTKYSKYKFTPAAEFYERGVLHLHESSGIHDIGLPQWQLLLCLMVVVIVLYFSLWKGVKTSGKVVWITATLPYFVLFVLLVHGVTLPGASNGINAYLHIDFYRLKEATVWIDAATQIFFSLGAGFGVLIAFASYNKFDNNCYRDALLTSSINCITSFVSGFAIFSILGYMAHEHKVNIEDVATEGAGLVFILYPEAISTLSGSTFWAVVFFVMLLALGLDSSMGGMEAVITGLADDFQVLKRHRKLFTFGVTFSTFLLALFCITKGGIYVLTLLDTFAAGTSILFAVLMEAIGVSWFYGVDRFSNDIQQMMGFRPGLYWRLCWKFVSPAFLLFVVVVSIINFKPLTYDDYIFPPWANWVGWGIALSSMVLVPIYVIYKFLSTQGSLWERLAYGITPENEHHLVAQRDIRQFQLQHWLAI

Row | SMILES | inhibition at 1 µM [1, 2] [%] | urethral resistance increasing effect (cmH2O) (SD female rats; 3.0 mg/kg oral, 15 min later) | urethral resistance increasing effect (cmH2O) (SD female rats; 3.0 mg/kg oral, 30 min later) | urethral resistance increasing effect (cmH2O) (SD female rats; 10.0 mg/kg oral, 15 min later) | urethral resistance increasing effect (cmH2O) (SD female rats; 10.0 mg/kg oral, 30 min later) | urethral resistance increasing effect (cmH2O) (SD female rats; 1.0 mg/kg oral, 15 min later) | urethral resistance increasing effect (cmH2O) (SD female rats; 1.0 mg/kg oral, 30 min later) | urethral resistance increasing effect (cmH2O) (SD female rats; 30.0 mg/kg oral, 15 min later) | urethral resistance increasing effect (cmH2O) (SD female rats; 30.0 mg/kg oral, 30 min later) | inhibition at 1 µM [1, 3] [%] | urethral resistance increasing effect (cmH2O) (SD female rats; 0.3 mg/kg oral, 15 min later) | urethral resistance increasing effect (cmH2O) (SD female rats; 0.3 mg/kg oral, 30 min later) | inhibition at 10 µM ([1]; read-out: inhibitory rate (%), compound 10 μM) [%]
1 | NS(=O)(=O)N[C@@H]1CNCCO[C@H]1c1ccc(Cl)c(Cl)c1 [Example 37, N-[(6R,7S)-7-(3,4-dichlorophenyl)-1,4-oxazepan-6-yl]sulfamide monohydrochloride] | 102 | 8.5 ± 1.4 | 7.6 ± 1.6 | 16.3 ± 1.2 | 17.2 ± 1.9 | – | – | – | – | – | – | – | –
2 | CC(=O)N[C@@H]1CNCCO[C@H]1c1ccc(Cl)c(Cl)c1 [Example 36, N-[(6R,7S)-7-(3,4-dichlorophenyl)-1,4-oxazepan-6-yl]acetamide monofumarate] | – | – | – | 15.0 ± 1.8 | 14.3 ± 1.8 | – | – | – | – | 101 | – | – | –
3 | O=C(O)c1cccn(C[C@@H]2CNCCO[C@H]2c2ccc(Cl)c(F)c2)c1=O [Example 44, 1-{[(6S,7R)-7-(4-chloro-3-fluorophenyl)-1,4-oxazepan-6-yl]methyl}-2-oxo-1,2-dihydropyridine-3-carboxylic acid monohydrochloride] | 102 | 15.5 ± 3.7 | 13.7 ± 3.3 | 18.8 ± 1.5 | 16.4 ± 1.5 | 8.6 ± 2.6 | 9.8 ± 2.6 | – | – | – | 0.1 ± 2.5 | 2.2 ± 2.6 | –
4 | CC(=O)NC[C@@H]1CNCCO[C@H]1c1ccc(Cl)c(Cl)c1 [Example 32, N-{[(6S,7R)-7-(3,4-dichlorophenyl)-1,4-oxazepan-6-yl]methyl}acetamide 0.5 fumarate] | – | – | – | 18.3 ± 2.1 | 17.1 ± 3.2 | – | – | – | – | 93 | – | – | –
5 | O=c1[nH]c(-c2cccn(C[C@@H]3CNCCO[C@H]3c3ccc(Cl)c(F)c3)c2=O)no1 [Example 43, 1-{[(6S,7R)-7-(4-chloro-3-fluorophenyl)-1,4-oxazepan-6-yl]methyl}-3-(5-oxo-4,5-dihydro-1,2,4-oxadiazol-3-yl)pyridin-2(1H)-one monohydrochloride] | – | 8.4 ± 3.0 | 11.8 ± 2.8 | 13.9 ± 2.1 | 14.8 ± 0.9 | – | – | – | – | 102 | – | – | –
6 | O=c1[nH]c(-c2cccn(C[C@@H]3CNCCO[C@H]3c3ccc(Cl)c(Cl)c3)c2=O)no1 [Example 31, 1-{[(6S,7R)-7-(3,4-dichlorophenyl)-1,4-oxazepan-6-yl]methyl}-3-(5-oxo-4,5-dihydro-1,2,4-oxadiazol-3-yl)pyridin-2(1H)-one monohydrochloride] | 108 | 13.2 ± 3.8 | 14.5 ± 3.6 | 16.2 ± 2.1 | 14.3 ± 2.2 | 6.7 ± 2.5 | 9.0 ± 3.8 | – | – | – | – | – | –
7 | COCC(=O)NC[C@@H]1CNCCO[C@H]1c1ccc(Cl)c(Cl)c1 [Example 33, N-{[(6S,7R)-7-(3,4-dichlorophenyl)-1,4-oxazepan-6-yl]methyl}-2-methoxyacetamide monohydrochloride] | 100 | – | – | 21.8 ± 3.3 | 20.9 ± 3.4 | – | – | – | – | – | – | – | –
8 | CC(=O)NC[C@H]1CNCCO[C@@H]1c1ccc(Cl)c(Cl)c1 (racemic) [Example 6, N-{[(6RS,7SR)-7-(3,4-dichlorophenyl)-1,4-oxazepan-6-yl]methyl}acetamide monohydrochloride] | – | – | – | – | – | – | – | – | – | 95 | – | – | 97

Continued, in another order:

Row | inhibition at 1 µM [1, 2] [%] | SMILES | urethral resistance increasing effect (cmH2O) (SD female rats; 3.0 mg/kg oral, 15 min later) | urethral resistance increasing effect (cmH2O) (SD female rats; 3.0 mg/kg oral, 30 min later) | urethral resistance increasing effect (cmH2O) (SD female rats; 10.0 mg/kg oral, 15 min later) | urethral resistance increasing effect (cmH2O) (SD female rats; 10.0 mg/kg oral, 30 min later) | urethral resistance increasing effect (cmH2O) (SD female rats; 1.0 mg/kg oral, 15 min later) | urethral resistance increasing effect (cmH2O) (SD female rats; 1.0 mg/kg oral, 30 min later) | urethral resistance increasing effect (cmH2O) (SD female rats; 30.0 mg/kg oral, 15 min later) | urethral resistance increasing effect (cmH2O) (SD female rats; 30.0 mg/kg oral, 30 min later) | inhibition at 1 µM [1, 3] [%] | urethral resistance increasing effect (cmH2O) (SD female rats; 0.3 mg/kg oral, 15 min later) | urethral resistance increasing effect (cmH2O) (SD female rats; 0.3 mg/kg oral, 30 min later) | inhibition at 10 µM ([1]; read-out: inhibitory rate (%), compound 10 μM) [%]
9 | 102 | [2H]C([2H])([2H])OCC(=O)NC[C@@H]1CNCCO[C@H]1c1ccc(Cl)c(F)c1 [Example 39, N-{[(6S,7R)-7-(4-chloro-3-fluorophenyl)-1,4-oxazepan-6-yl]methyl}-2-[(^2H3)methyloxy]acetamide monohydrochloride] | 15.8 ± 1.7 | 14.1 ± 1.5 | 17.9 ± 1.8 | 17.1 ± 2.3 | 12.3 ± 2.2 | 8.7 ± 2.6 | – | – | – | – | – | –
10 | 101 | O=c1[nH]c(-c2cccnc2O[C@@H]2CNCCO[C@H]2c2ccc(Cl)c(F)c2)no1 [Example 556, 3-(2-{[(6R,7S)-7-(4-chloro-3-fluorophenyl)-1,4-oxazepan-6-yl]oxy}pyridin-3-yl)-1,2,4-oxadiazol-5(4H)-one monohydrochloride] | 6.0 ± 2.0 | 5.0 ± 2.9 | 13.4 ± 1.7 | 10.6 ± 1.8 | – | – | 17.8 ± 3.4 | 17.5 ± 2.3 | – | – | – | –
11 | 102 | COCC(=O)NC[C@@H]1CNCCO[C@H]1c1ccc(Cl)c(F)c1 [Example 38, N-{[(6S,7R)-7-(4-chloro-3-fluorophenyl)-1,4-oxazepan-6-yl]methyl}-2-methoxyacetamide monohydrochloride] | 18.0 ± 2.5 | 17.4 ± 2.4 | 21.6 ± 2.9 | 21.3 ± 3.3 | 12.9 ± 3.3 | 9.3 ± 1.6 | – | – | – | 4.2 ± 1.7 | 5.1 ± 1.7 | –
12 | 107 | O=c1[nH]c(-c2ncccc2O[C@@H]2CNCCO[C@H]2c2ccc(Cl)c(F)c2)no1 [Example 584, 3-(3-{[(6R, 7S)-7-(4-chloro-3-fluorophenyl)-1,4-oxazepan-6-yl]oxy}pyridin-2-yl)-1,2,4-oxadiazol-5(4H)-one] | 9.5 ± 3.5 | 7.2 ± 2.6 | 18.4 ± 3.4 | 16.2 ± 3.3 | – | – | – | – | – | – | – | –
13 | 105 | OC[C@H](O)[C@@H]1OCCNC[C@H]1c1ccc(Cl)c(Cl)c1 [Example 45, (1S)-1-[(6R,7R)-6-(3,4-dichlorophenyl)-1,4-oxazepan-7-yl]ethane-1,2-diol monohydrochloride] | 16.9 ± 1.4 | 17.5 ± 2.8 | 21.0 ± 2.0 | 22.1 ± 2.0 | 10.0 ± 2.6 | 13.4 ± 1.2 | – | – | – | 6.4 ± 1.3 | 9.3 ± 3.3 | –
14 | 104 | CCOCC(=O)NC[C@@H]1CNCCO[C@H]1c1ccc(Cl)c(F)c1 [Example 40, N-{[(6S,7R)-7-(4-chloro-3-fluorophenyl)-1,4-oxazepan-6-yl]methyl}-2-ethoxyacetamide monohydrochloride] | 11.4 ± 1.9 | 12.8 ± 1.6 | 16.6 ± 2.0 | 17.2 ± 2.2 | 8.5 ± 1.9 | 8.6 ± 2.6 | – | – | – | – | – | –
